We go through 13 molecules from patent publication US11472799B2, “Serine threonine kinase (AKT) degradation / disruption compounds and methods of use” (Icahn School of Medicine at Mount Sinai, priority 2018, dated 2022).

The assay concerns AKT. Briefly: Western blot of AKT protein levels in PC-3 cells. The format is cell-based, human. Conditions: for suppression of AKT protein level and AKT activity: 1 μM (FIGS. 11 and 12); for AKT protein levels: 1 μM for 24 h (FIGS. 11, 12). The procedure:
PC-3, U87MG, HCC1143, MDA-MB-231, MDA-MB-468, BT474 and MCF-7 cell lines were purchased from ATCC. Cell lines were regularly tested in the lab for mycoplasma. All cells were cultured at 37° C. and 5% CO2. PC-3, U87MG, MDA-MB-231, MCF-7 and BT474 cells were cultured in 1×DMEM (Corning, 10-013-CV) with 10% fetal bovine serum (Atlanta Biologicals S11150) and 1× Penicillin/Streptomycin. HCC1143 cells were cultured in RPMI (Corning, 10-040-CV) medium with 10% fetal bovine serum (Atlanta Biologicals S11150) and 1× Penicillin/Streptomycin. Cells were split using 0.05% or 0.25% trypsin (Corning 25-051-Cl or 25-053-Cl, respectively) before they reached full confluence and media was changed every 3-4 days. Cells were treated with compounds individually at different concentrations for 24 hrs. Cells were treated with DMSO, VHL, or PML alone as controls.
Cells were lysed in 2× sample buffer (125 mM Tris-HCl at pH 6.8, 10% βME, 2% SDS, 20% glycerol, 0.05% Bromophenol Blue, 8 M urea). Protein lysates were loaded into 4-12% Bis-Tris gels and resolved by electrophoresis. Samples were then blotted on PVDF membrane (Millipore IPVH00010) using the wet transfer technique (Invitrogen). Membranes were blocked in 5% milk-TBST for 1 hour, washed in TBST for 10 min, and incubated in primary antibody in 5% milk-TBST or 5% BSA-TBST at 4° C. for 16 h. Membranes were rinsed (3×6 min) in TBST and incubated in horseradish peroxidase-conjugated secondary antibodies in 5% milk-TBST for 1 hour and rinsed again in TBST (3×6 min). Membranes were visualized using the chemiluminescence system (Thermo 34080, 37075) on autoradiography film (Denville E3018). Primary Antibodies: R-actin (Sigma A5316), p-AKT (Ser473 CST-9721), total AKT (CST-9272), p-S6 (Ser240/244, CST-5364), p-PRAS40 (Thr246, CST-2997). Secondary Antibodies: Mouse (Thermo 31432), Rabbit (Thermo 31460).
(A western blot detects proteins with antibodies after separation by electrophoresis.)

Structures are written as SMILES.

On to `Cc1ncsc1-c1ccc(CNC(=O)[C@@H]2C[C@@H](O)CN2C(=O)[C@@H](NC(=O)CCCCCCCCNC(=O)CCc2cccc(-c3ccc4nc(-c5cccnc5N)n(-c5ccc(C6(N)CCC6)cc5)c4n3)c2)C(C)(C)C)cc1` [XF067-16, (2S,4R)-1-((S)-2-(9-(3-(3-(3-(4-(1-aminocyclobutyl)phenyl)-2-(2-aminopyridin-3-yl)-3H-imidazo[4,5-b]pyridin-5-yl)phenyl)propanamido)nonanamido)-3,3-dimethylbutanoyl)-4-hydroxy-N-(4-(4-methylthiazol-5-yl)benzyl)pyrrolidine-2-carboxamide], for which the “suppression of AKT protein level and AKT activity” value (from here on “suppression”) is “effective in suppressing AKT protein level and AKT activity”.

As for `Cc1ncsc1-c1ccc(CNC(=O)[C@@H]2C[C@@H](O)CN2C(=O)[C@@H](NC(=O)CCCCCCCNC(=O)CCc2cccc(-c3ccc4nc(-c5cccnc5N)n(-c5ccc(C6(N)CCC6)cc5)c4n3)c2)C(C)(C)C)cc1` [XF067-15, (2S,4R)-1-((S)-2-(8-(3-(3-(3-(4-(1-aminocyclobutyl)phenyl)-2-(2-aminopyridin-3-yl)-3H-imidazo[4,5-b]pyridin-5-yl)phenyl)propanamido)octanamido)-3,3-dimethylbutanoyl)-4-hydroxy-N-(4-(4-methylthiazol-5-yl)benzyl)pyrrolidine-2-carboxamide], the “suppression” value is “effective in suppressing AKT protein level and AKT activity”.

As to `Cc1ncsc1-c1ccc(CNC(=O)[C@@H]2C[C@@H](O)CN2C(=O)[C@@H](NC(=O)CCCCCCCCCNC(=O)CCc2cccc(-c3ccc4nc(-c5cccnc5N)n(-c5ccc(C6(N)CCC6)cc5)c4n3)c2)C(C)(C)C)cc1` [XF067-17, (2S,4R)-1-((S)-2-(10-(3-(3-(3-(4-(1-aminocyclobutyl)phenyl)-2-(2-aminopyridin-3-yl)-3H-imidazo[4,5-b]pyridin-5-yl)phenyl)propanamido)decanamido)-3,3-dimethylbutanoyl)-4-hydroxy-N-(4-(4-methylthiazol-5-yl)benzyl)pyrrolidine-2-carboxamide], the “suppression” value was “effective in suppressing AKT protein level and AKT activity”.

Regarding `Cc1ncsc1-c1ccc(CNC(=O)[C@@H]2C[C@@H](O)CN2C(=O)[C@@H](NC(=O)CCCCCCCCCCNC(=O)CCc2cccc(-c3ccc4nc(-c5cccnc5N)n(-c5ccc(C6(N)CCC6)cc5)c4n3)c2)C(C)(C)C)cc1` [XF067-18, (2S,4R)-1-((S)-2-(11-(3-(3-(3-(4-(1-aminocyclobutyl)phenyl)-2-(2-aminopyridin-3-yl)-3H-imidazo[4,5-b]pyridin-5-yl)phenyl)propanamido)undecanamido)-3,3-dimethylbutanoyl)-4-hydroxy-N-(4-(4-methylthiazol-5-yl)benzyl)pyrrolidine-2-carboxamide], the “suppression” value was “effective in suppressing AKT protein level and AKT activity”.

`CCn1c(-c2nonc2N)nc2c(C#CC(C)(C)O)ncc(OCCCNCCCC(=O)NCCCCCCCCCCC(=O)N[C@H](C(=O)N3C[C@H](O)C[C@H]3C(=O)NCc3ccc(-c4scnc4C)cc3)C(C)(C)C)c21` [XF067-101, (2S,4R)-1-((S)-2-(11-(4-((3-((2-(4-amino-1,2,5-oxadiazol-3-yl)-1-ethyl-4-(3-hydroxy-3-methylbut-1-yn-1-yl)-1H-imidazo[4,5-c]pyridin-7-yl)oxy)propyl)amino)butanamido)undecanamido)-3,3-dimethylbutanoyl)-4-hydroxy-N-(4-(4-methylthiazol-5-yl)benzyl)pyrrolidine-2-carboxamide]: the “suppression” value was “effective in suppressing AKT protein level and AKT activity”.

Consider `CCn1c(-c2nonc2N)nc2c(C#CC(C)(C)O)ncc(OCCCNCCCC(=O)NCCCCCCCCNc3cccc4c3C(=O)N(C3CCC(=O)NC3=O)C4=O)c21` (stereo not shown) [XF067-113, 4-((3-((2-(4-amino-1,2,5-oxadiazol-3-yl)-1-ethyl-4-(3-hydroxy-3-methylbut-1-yn-1-yl)-1H-imidazo[4,5-c]pyridin-7-yl)oxy)propyl)amino)-N-(8-((2-(2,6-dioxopiperidin-3-yl)-1,3-dioxoisoindolin-4-yl)amino)octyl)butanamide], for which the “suppression” value was “effective in suppressing AKT protein level and AKT activity”.

Turning to `Nc1ncccc1-c1nc2ccc(-c3ccccc3)nc2n1-c1ccc(C2(N)CCC2)cc1` [ARQ-092, 3-(3-(4-(1-Aminocyclobutyl)phenyl)-5-phenyl-3H-imidazo[4,5-b]pyridin-2-yl)pyridin-2-amine, reference compound], the AKT protein levels entry is listed as “no effect”.

On to `Cc1ncsc1-c1ccc(CNC(=O)[C@@H]2C[C@@H](O)CN2C(=O)[C@@H](NC(=O)CCCCCCC(=O)NCCc2cccc(-c3ccc4nc(-c5cccnc5N)n(-c5ccc(C6(N)CCC6)cc5)c4n3)c2)C(C)(C)C)cc1` [XF067-44, N^1-(3-(3-(4-(1-aminocycIobutyl)phenyl)-2-(2-aminopyridin-3-yl)-3H-imidazo[4,5-b]pyridin-5-yl)phenethyl)-N^8-((S)-1-((2S,4R)-4-hydroxy-2-((4-(4-methylthiazol-5-yl)benzyl)carbamoyl)pyrrolidin-1-yl)-3,3-dimethyl-1-oxobutan-2-yl)octanediamide], for which the “suppression” value was “effective in suppressing AKT protein level and AKT activity”.

On to `Cc1ncsc1-c1ccc(CNC(=O)[C@@H]2C[C@@H](O)CN2C(=O)[C@@H](NC(=O)CCCCCCCCC(=O)NCCc2cccc(-c3ccc4nc(-c5cccnc5N)n(-c5ccc(C6(N)CCC6)cc5)c4n3)c2)C(C)(C)C)cc1` [XF067-46, N^1-(3-(3-(4-(1-aminocyclobutyl)phenyl)-2-(2-aminopyridin-3-yl)-3H-imidazo[4,5-b]pyridin-5-yl)phenethyl)-N^10-((S)-1-((2S,4R)-4-hydroxy-2-((4-(4-methylthiazol-5-yl)benzyl)carbamoyl)pyrrolidin-1-yl)-3,3-dimethyl-1-oxobutan-2-yl)decanediamide], for which the “suppression” value is “effective in suppressing AKT protein level and AKT activity”.

Consider `Cc1ncsc1-c1ccc(CNC(=O)[C@@H]2C[C@@H](O)CN2C(=O)[C@@H](NC(=O)CCCCCCCC(=O)NCCc2cccc(-c3ccc4nc(-c5cccnc5N)n(-c5ccc(C6(N)CCC6)cc5)c4n3)c2)C(C)(C)C)cc1` [XF067-45, N^1-(3-(3-(4-(1-aminocyclobutyl)phenyl)-2-(2-aminopyridin-3-yl)-3H-imidazo[4,5-b]pyridin-5-yl)phenethyl)-N^9-((S)-1-((2S,4R)-4-hydroxy-2-((4-(4-methylthiazol-5-yl)benzyl)carbamoyl)pyrrolidin-1-yl)-3,3-dimethyl-1-oxobutan-2-yl)nonanediamide], for which the “suppression” value was “effective in suppressing AKT protein level and AKT activity”.

With `CCn1c(-c2nonc2N)nc2c(C#CC(C)(C)O)ncc(OC[C@H]3CCCNC3)c21` [GSK690693, 4-(2-(4-amino-1,2,5-oxadiazol-3-yl)-1-ethyl-7-{[(3S)-3-piperidinylmethyl]oxy}-1H-imidazo[4,5-c]pyridin-4-yl)-2-methyl-3-butyn-2-ol, reference compound], the AKT protein levels result is “no effect”.

Turning to `Cc1ncsc1-c1ccc(CNC(=O)[C@@H]2C[C@@H](O)CN2C(=O)[C@@H](NC(=O)CCCCCCCCCC(=O)NCCc2cccc(-c3ccc4nc(-c5cccnc5N)n(-c5ccc(C6(N)CCC6)cc5)c4n3)c2)C(C)(C)C)cc1` [XF067-47, N^1-(3-(3-(4-(1-aminocyclobutyl)phenyl)-2-(2-aminopyridin-3-yl)-3H-imidazo[4,5-b]pyridin-5-yl)phenethyl)-N^11-((S)-1-((2S,4R)-4-hydroxy-2-((4-(4-methylthiazol-5-yl)benzyl)carbamoyl)pyrrolidin-1-yl)-3,3-dimethyl-1-oxobutan-2-yl)undecanediamide], the “suppression” value was “effective in suppressing AKT protein level and AKT activity”.

On to `CCn1c(-c2nonc2N)nc2c(C#CC(C)(C)O)ncc(OCCCNCCCC(=O)NCCCCCCCCC(=O)N[C@H](C(=O)N3C[C@H](O)C[C@H]3C(=O)NCc3ccc(-c4scnc4C)cc3)C(C)(C)C)c21` [XF067-99, (2S,4R)-1-((S)-2-(9-(4-((3-((2-(4-amino-1,2,5-oxadiazol-3-yl)-1-ethyl-4-(3-hydroxy-3-methylbut-1-yn-1-yl)-1H-imidazo[4,5-c]pyridin-7-yl)oxy)propyl)amino)butanamido)nonanamido)-3,3-dimethylbutanoyl)-4-hydroxy-N-(4-(4-methylthiazol-5-yl)benzyl)pyrrolidine-2-carboxamide], for which the “suppression” value was “effective in suppressing AKT protein level and AKT activity”.
